This note sets out measurements from patent publication US20120101134A1, “5-MEMBERED HETEROARYL DERIVATIVES USED AS SPHINGOSINE 1-PHOSPHATE RECEPTOR AGONISTS” (GLAXO GROUP LIMITED, priority 2009, published 2012).

T1 sequence (P21453 whole entry, the tested form may be a part): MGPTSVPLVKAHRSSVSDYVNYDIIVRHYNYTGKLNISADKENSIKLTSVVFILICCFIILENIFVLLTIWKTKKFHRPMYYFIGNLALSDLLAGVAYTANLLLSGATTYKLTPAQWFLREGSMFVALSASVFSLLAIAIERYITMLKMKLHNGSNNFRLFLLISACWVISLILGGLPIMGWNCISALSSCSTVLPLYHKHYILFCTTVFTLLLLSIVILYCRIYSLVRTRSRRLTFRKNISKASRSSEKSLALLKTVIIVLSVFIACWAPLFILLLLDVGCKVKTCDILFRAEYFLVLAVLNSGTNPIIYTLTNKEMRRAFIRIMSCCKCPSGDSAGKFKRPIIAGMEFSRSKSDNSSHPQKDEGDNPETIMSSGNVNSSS

One test has as its target T1, human Endothelial Differentiation Gene 1 (EDG1) (Homo sapiens, UniProt P21453).
T1 construct: TEV protease site; Gal4-VP16 transcription factor; expressed in transfected cells; host or cells: EDG1-bla/U2OS (Tango GPCR-bla U2OS parental cell line)
Briefly: S1P1 Tango assay - 384 well format. The class given is cell-based. Particulars: EDG1-bla/U2OS cells, agonist. As for the experimental part: S1P1 Tango assay—384 Well Format
Recombinant EDG1-bla/U2OS cells (contain the human Endothelial Differentiation Gene 1 (EDG1) linked to a TEV protease site and a Gal4-VP16 transcription factor stably integrated into the Tango GPCR-bla U2OS parental cell line) were harvested from growth medium and passaged into assay medium (Invitrogen Freestyle Expression Medium). The cells were starved for 24 hours at 37° C., 5% CO2, harvested and resuspended in assay medium at a density of ˜200,000 cells/ml. All test compounds were dissolved in DMSO at a concentration of 10 mM and were prepared in 100% DMSO to provide 10 point dose response curves. Test compounds prepared by Bravo (Velocity11) were added to wells in columns 2-11 and 13-22; DMSO was added to wells in columns 12 and 23 as unstimulated controls and assay medium was added to wells in columns 1 and 24 as cell-free controls. An S1P1 agonist was added to wells in row 2, columns 2-11 as stimulated controls and test compounds were added to wells in row 2, columns 13-22 and rows 3-15, columns 2-11/13-22 (row 1 and 16 were empty and not used). Compounds in solution were added to the assay plate (Greiner 781090) using an Echo (Labcyte) dose-response program (50 nl/well). The unstimulated and cell-free controls were loaded with 50 nl/well pure DMSO to ensure that the DMSO concentration was constant across the plate for all assays.
50 μl of the cell suspension was added to each well in columns 2-23 of the plate (˜10,000 cells per well). 50 μl of assay medium was added to each well in the cell-free controls (columns 1 and 24). The cells were incubated overnight at 37° C./5% CO2.
10 μl of 6× substrate mixture (LiveBLAzer™-FRET B/G substrate (CCF4-AM) Cat #K1096 from Invitrogen, Inc.) was added to each well using Bravo and the plates incubated at room temperature for 2 h in the dark. The plate was finally read on EnVision using one excitation channel (409 nm) and two emission channels (460 nm and 530 nm).
The blue/green emission ratio (460 nm/530 nm) was calculated for each well, by dividing the background-subtracted Blue emission values by the background-subtracted Green emission values. The dose response curve is based on sigmoidal dose-response model. All ratio data was normalized based upon the maximum emission ratio of positive control and minimum emission ratio of negative control (DMSO) on each plate. The intrinsic activity (IA) of each compound would be the normalized percentage of its maximum response after curve fitting.
In turn, `CCc1c(CCCC(=O)O)cccc1-c1cnc(-c2ccc(OC(C)C)c(C#N)c2)s1` [Example 50, 4-[3-(2-{3-cyano-4-[(1-methylethyl)oxy]phenyl}-1,3-thiazol-5-yl)-2-ethylphenyl]butanoic acid] showed an EC50 of at most 10 nM.
Still for that read-out and setting: under `COc1c(CCCC(=O)O)cc(F)cc1-c1cnc(-c2ccc(OC(C)C)c(C#N)c2)s1` [Example 51, 4-[3-(2-{3-cyano-4-[(1-methylethyl)oxy]phenyl}-1,3-thiazol-5-yl)-5-fluoro-2-(methyloxy)phenyl]butanoic acid] stands at most 10 nM; under `CCc1c(CCCC(=O)O)cccc1-c1cnc(-c2ccc(OC(C)C)c(Cl)c2)s1` [Example 52, 4-[3-(2-{3-chloro-4-[(1-methylethyl)oxy]phenyl}-1,3-thiazol-5-yl)-2-ethylphenyl]butanoic acid], at most 10 nM.
`CCc1c(CCN(C)CC(=O)O)cccc1-c1cnc(-c2ccc(OC(C)C)c(C#N)c2)s1` [Example 53, N-{2-[3-(2-{3-cyano-4-[(1-methylethyl)oxy]phenyl}-1,3-thiazol-5-yl)-2-ethylphenyl]ethyl}-N-methylglycine] had an EC50 of at most 10 nM.
In turn, `CCc1c(CN(C)CC(=O)O)cccc1-c1cnc(-c2ccc(OC(C)C)c(Cl)c2)s1` [Example 54, N-{[3-(2-{3-chloro-4-[(1-methylethyl)oxy]phenyl}-1,3-thiazol-5-yl)-2-ethylphenyl]methyl}-N-methylglycine] showed an EC50 of at most 1000 nM.
Turning to `CCc1c(CN(C)CC(=O)O)cccc1-c1cnc(-c2ccc(OC(C)C)c(C#N)c2)s1` [Example 55, N-{[3-(2-{3-cyano-4-[(1-methylethyl)oxy]phenyl}-1,3-thiazol-5-yl)-2-ethylphenyl]methyl}-N-methylglycine], the EC50 was at most 100 nM.
Same read-out and setting: under `CCc1c(CCN(C)CC(=O)O)cccc1-c1cnc(-c2ccc(OC(C)C)c(Cl)c2)s1` [Example 56, N-{2-[3-(2-{3-chloro-4-[(1-methylethyl)oxy]phenyl}-1,3-thiazol-5-yl)-2-ethylphenyl]ethyl}-N-methylglycine] stands at most 10 nM.
In the case of `CCc1c(CN(C)CCC(=O)O)cccc1-c1cnc(-c2ccc(OC(C)C)c(C#N)c2)s1` [Example 57, N-{[3-(2-{3-cyano-4-[(1-methylethyl)oxy]phenyl}-1,3-thiazol-5-yl)-2-ethylphenyl]methyl}-N-methyl-β-alanine], the EC50 is at most 100 nM.
On the same count and under the same terms, the same measure for `CCc1c(-c2cnc(-c3ccc(OC(C)C)c(C#N)c3)s2)ccnc1CCCC(=O)O` [Example 58, 4-[4-(2-{3-cyano-4-[(1-methylethyl)oxy]phenyl}-1,3-thiazol-5-yl)-3-ethyl-2-pyridinyl]butanoic acid]: at most 1000 nM; for `CCc1c(CCN(C)CCC(=O)O)cccc1-c1cnc(-c2ccc(OC(C)C)c(C#N)c2)s1` [Example 59, N-{2-[3-(2-{3-cyano-4-[(1-methylethyl)oxy]phenyl}-1,3-thiazol-5-yl)-2-ethylphenyl]ethyl}-N-methyl-b-alanine]: at most 1 nM.

Another test deals with T1, human Endothelial Differentiation Gene 1 (EDG1). Put plainly: S1P1 Tango assay - 96 well format. The class given is cell-based. Particulars: EDG1-bla/U2OS cells, agonist. As for the experimental part:
S1P1 Tango assay—96 Well Format
Recombinant EDG1-bla/U2OS cells (contain the human Endothelial Differentiation Gene 1 (EDG1) linked to a TEV protease site and a Gal4-VP16 transcription factor stably integrated into the Tango GPCR-bla U2OS parental cell line) were suspended in assay medium (Invitrogen Freestyle Expression Medium) at a density of 312, 500 cells/ml. Add 100 μl/well of the assay medium to the cell-free control wells (column 12) and 100 μl/well of the cell suspension to the test compound wells (row 2-8, column 1-10), the unstimulated control wells (DMSO) (column 11), and stimulated control wells (SIP) (row 1, column 1-10) in a Corning black-well, clear bottom 96-well plate. Cells were incubated at 37° C., 5% CO2 for 44-48 h.
Add 25 μl of 5× stock solution of test compounds in assay medium with 0.5% DMSO to the test compound wells, 25 μl of 5× stock solution of agonist (S1P) in assay medium with 0.5% DMSO to the stimulated compound wells, and 25 μl of 5× stock solution of 0.5% DMSO in assay medium to the unstimulated control and cell-free control wells.
After incubation at 37° C., 5% CO2 for 5 h, 25 μl of 6× substrate mixture (6 μl Solution A (1 mg LiveBLAzer™-FRET B/G substrate (CCF4-AM) in 912 μl DMSO) plus 60 μl Solution B plus 934 μl Solution C) was added to each well and incubate at room temperature for 2 h in dark. The plate was finally read on EnVision for two emission channels (460 nm and 530 nm).
All test compounds were dissolved in DMSO at a concentration of 10 mM and were prepared in 100% DMSO using a 1 in 5 dilution step to provide 10 point dose response curves. The dilutions were transferred to the assay plates ensuring that the DMSO concentration was constant across the plate for all assays.
Calculate the blue/green emission ratio (460 nm/530 nm) for each well, by dividing the background-subtracted Blue emission values by the background-subtracted Green emission values. The dose response curve is based on sigmoidal dose-response model. […]
For the compound `Cc1c(C[C@@H](C)C(=O)O)cccc1-c1noc(-c2cnc(OC(C)C)c(Cl)c2)n1` [Example 3, (2R)-3-[3-(5-{5-chloro-6-[(1-methylethyl)oxy]-3-pyridinyl}-1,2,4-oxadiazol-3-yl)-2-methylphenyl]-2-methylpropanoic acid], the EC50 was above 1000 nM.
The same measure, in the same setting: under `Cc1c(CCCC(=O)O)cccc1-c1noc(-c2cnc(OC(C)C)c(Cl)c2)n1` [Example 4, 4-[3-(5-{5-chloro-6-[(1-methylethyl)oxy]-3-pyridinyl}-1,2,4-oxadiazol-3-yl)-2-methylphenyl]butanoic acid] stands above 1000 nM; under `CC(C)Oc1ccc(-c2nc(-c3ccnc(CCCC(=O)O)c3)no2)cc1C#N` [Example 21, 4-[4-(5-{3-cyano-4-[(1-methylethyl)oxy]phenyl}-1,2,4-oxadiazol-3-yl)-2-pyridinyl]butanoic acid], above 1000 nM.

One may read the EC50 as the concentration giving half of the maximal effect.
